The text below walks through data of patent publication US5380646A, “Thrombus detection using radiolabelled disintegrins” (Temple University of the Commonwealth System of Higher …, priority 1992, dated 1995).

The subject of test [1] is pulmonary emboli. The note with it: literature, in words; cited from earlier work.
The test system of test [2] is thrombi. Particulars: literature, in words; cited from earlier work.
Test [3] relates to femoral clot. Nature of the test: Comparison of short Arg-Gly-Asp peptides to disintegrins in dog, femoral clot (Example 7). It is filed as in vivo. Particulars: T:B at least 4:1 in extremities, 9:1 in chest.
Procedure: In this example of thrombi and emboli in a dog, the radioactivity target:background ratios were determined qualitatively by imaging and quantitatively by tissue sampling. […] Significant measurements presented in this study are the relative ratio of counts from the target tissue (thrombus and pulmonary emboli) to background entities (muscle, vessels blood etc.). […] Thrombus uptake data, such as the percent injected radiolabel dose per gram of thrombus (% id/g thrombus), thrombus-to-blood (=100×% id/g thrombus.div.%id/g blood) and thrombus-to-muscle ratios (=100×%id/g thrombus.div.%id/g muscle) were calculated from the tissue sample count data discussed below.
A female mongrel dog weighing 40 lbs was fasted overnight. The dog was sedated with an intramuscular injection of a mixture of ketamine hydrochloride and acepromazine maleate. General anesthesia was induced with intravenous pentobarbital (20 mg/kg). After shaving and washing the dog's skin, a 3-cm incision was made in the right groin area. Using blunt dissection, a segment of the femoral vein was located and freed from surrounding tissue for a length of 1 inch. […]
At 2 hours and 45 min. post injection, deep anesthesia was induced by intravenous administration of 30 mg/kg pentobarbital. […] Each sample was then placed in a counting tube and counted along with a saved aliquot of the injected dose as a standard, in a well counter. […]
For test [4], the system named is pulmonary emboli. As to the kind of experiment: Comparison of short Arg-Gly-Asp peptides to disintegrins in dog, pulmonary emboli (Example 7). The test is classed as in vivo. Particulars: PE; 4 hrs. As for the experimental part:
In this example of thrombi and emboli in a dog, the radioactivity target:background ratios were determined qualitatively by imaging and quantitatively by tissue sampling. Higher ratios are due to the increased target specificity of the radiolabel carrier. Significant measurements presented in this study are the relative ratio of counts from the target tissue (thrombus and pulmonary emboli) to background entities (muscle, vessels blood etc.). […] Thrombus uptake data, such as the percent injected radiolabel dose per gram of thrombus (% id/g thrombus), thrombus-to-blood (=100×% id/g thrombus.div.%id/g blood) and thrombus-to-muscle ratios (=100×%id/g thrombus.div.%id/g muscle) were calculated from the tissue sample count data discussed below.
To create a model of pulmonary embolus, an incision was made in the corresponding location on the left leg of the dog. […] The catheter and guide wire were withdrawn. The incision was closed with 2-0 silk.
Twenty-four hours after placement of the coils, anesthesia was induced as before. The urinary bladder was catheterized to collect urine. A large field of view gamma camera (General Electric, Milwaukee, Wis.) was positioned over the dog for an anterior view of the chest. The camera was fitted with a low-energy all-purpose collimator and was set to acquire the 159 keV photopeak of ^123 I with a 20% window. A Macintosh IIx computer was interfaced to the camera using a NucLear Mac A/D board and software (Scientific Imaging, Denver, Colo.). […] The ^125 -fibrinogen served as a control, since it has been studied previously in this dog model.
[…] A blood sample was drawn and 0.3 cc was transferred into each of two pre-weighed tubes. The animal was euthanized with intracardiac injection of KCl saturated solution. The vein segment containing the thrombus was carefully removed and dissected to separate the thrombus, coil, Dacron fibers and vessel wall. Each of these samples was placed on tared paper and weighed (wet weight). Similar size samples of control vessel (femoral vein from the control side) and skeletal muscle (from the thigh) were also collected and weighed. The "abnormal vessel" was the sample of vein from which the thrombus was dissected. The "control vessel" was the identical control vessel from the opposite leg. The control vessel Was not injured and therefore should not have significant uptake of radiotracer. Each sample was then placed in a counting tube and counted along with a saved aliquot of the injected dose as a standard, in a well counter. After counting, samples were held for decay of ^123 I and recounted in a lower energy window to collect the counts from ^125 I.
The imaging ability of the small peptides was compared to that of the ^123 I-labelled disintegrins in the Example 6 dog model. […]

Ends that are not written are not given here.

As for Fibronectin, the “ability to image pulmonary emboli” value in test [1] is given as “not been useful for imaging pulmonary emboli”.
For the substance Heparin [reference compound], the “ability to image or detect thrombi” value in test [2] is listed as “not been found successful as an agent for imaging thrombi”.
“^123 I-eristostatin: eristostatin, disintegrin from Eristocophis macmahoni, radioiodinated with ^123 I (QEEPCATGPCCRRCKFKRAGKVCRVARGDWNDDYCTGKSCDCPRNPWN; cysteine pairing not given here; also: radioiodinated with 123I, place not given here)”: in test [3], the “target:background ratios versus medically acceptable range for imaging” value is listed as “medically significant background ratios for imaging of thrombi”. In addition, in test [4], the “AV:CV abnormal (injured) vessel:control vessel label ratio” value worked out at 1.2, the “Percent Injected Dose Per Gram of Thrombus” value came out at 0.1205 % id/g, the “T:B thrombus:blood ratio” value amounted to 8.6 and the “T:M thrombus:muscle ratio” value came out at 40.6.
For the substance streptokinase, the “ability to image or detect thrombi” value in test [2] is reported as “only with marginal success”.
Turning to urokinase, in test [2], the “ability to image or detect thrombi” value is “only with marginal success”.
